Results on six molecules are retold here after patent US20250034185A1 (priority 2021, published 2025).

Entries after “also recorded” stand apart in the source; their conditions may differ.

Series [1] is described as follows: Single ascending dose study of P5P analog 16, oral, rats. The series is classed as in vivo. The following applies: single PO dose 10, 30, 100, 300 mg/kg, rat, observed to 24 hrs. As to the method:
Single ascending dose studies were carried out (Example 97: P5P analog 16i: single ascending dose study) to assess the maximum tolerability of a P5P analog (compound of formula 16i) in rats under 4 different doses under one single administration via Per Os (P.O.—oral) route, and to inform the linearity of pharmacokinetics (PK) with multiple dosing.
In order to isolate the effects of the administered compound of formula 16i on pyridoxine (PL) and P5P (PLP) levels, the basal levels of both PL and P5P were subtracted from the measured concentrations. Baseline subtraction was accomplished by subtracting pre-dose concentrations of either PL or P5P from the subsequent values in the time course.
Formulation—P5P analog 16 was formulated in 1% methylcellulose in water on the day of dosing.
(§1) Animals and group—17 CD ♂ rats with an approx. weigh of ˜250 g were used. Animals were split into 4 groups+1 extra (n=4 for each group). Animals were allowed a 5-day acclimatization period in animal facility. The animal room environment was controlled (temperature 22 f 0.2° C.; relative humidity 55 f 25%; 12 hours light/dark cycle, and 12 air changes per hour). A standard certified commercial rodent chow was provided to the animals ad libitum. Procedures involving the care and use of animals in this study were reviewed and approved by the Institutional Animal Care and Use Committee (IACUC) prior to conduct. One day prior to dosing on D-1, Rats were divided in 4 groups (Table 6). Animals were identified and bled for pre-dose blood. Rats in all groups were fasted overnight (12-14 hours) with access of water.
On day 0, animals in groups 1-2-3 were weighed, and dosed by oral gavage as described in Table 6. Each remaining dosing solutions were stirred (or slightly vortexed), a 50 ul sample were collected and placed in separate tube and both vials immediately frozen on dry ice. Food tray were returned to animals two hours post dosing.
Cage-side observation were done upon dosing, at the end of day, and 24 hrs post dosing (record adverse effect if observed). Animal were weighed again at 24 hrs post dosing.
Blood was collected at indicated time points for all groups at: Pre-dose, 15′, 30′, 1 h, 2 h, 4 h, 6 h, 8 h, 24 h.
(§2) About 150 μL of blood was collected at indicated time points below using K2EDTA tubes. Blood was kept on ice until centrifugation at 4° C. at 6000 RCF for 10 min. Plasma was collected and kept on dry ice until transferred at −80° C.

Series [2] in a line: Pharmacokinetic study 1: P5P and P5P analog 16, IV and PO, rats. The conditions noted are these: rat. The series is classed as in vivo. How it is done:
Pharmacokinetic study 1 was carried out (see Example 98: P5P analog 16i: Pharmacokinetic study 1) to assess if P5P analog 16i was able to be converted to P5P and increase plasma P5P, to assess if P5P analog 16i was orally available, and to compare the ability of PO P5P analog 16i and PO P5P to increase plasma P5P.
In order to isolate the effects of the administered P5P analog 16i on pyridoxine (PL) and P5P (PLP) levels, the basal levels of both PL and P5P were subtracted from the measured concentrations. Baseline subtraction was accomplished by subtracting pre-dose concentrations of either PL or P5P from the subsequent values in the time course.
Formulation—Both P5P (pyridoxal-5-phosphate) and P5P analog 16 were formulated in phosphate buffered saline (PBS) as homogenous solutions on the day of dosing.
as §1, with “and group—13” for “and group—17”, “extra (n=3” for “extra (n=4”, “(Table 7).” for “(Table 6). Animals were identified and bled for pre-dose blood.”, “in Group 3 and 4” for “in all groups”, “access to” for “access of”
On day 0, animals were identified, weighted, and dosed by intravenous (IV) injection or oral gavage (PO) as described in Table 7. Food tray were returned to Group 3 and 4, 2 hrs post dosing.
(§3) Blood was collected at indicated time points below for all groups: Pre-dose, 5′, 15′, 30′, 1 h, 2 h, 4 h, 6 h, 8 h, 24 h.
as §2

A short description of series [3]: Pharmacokinetic study 4: SP isomer, RP isomer and D-amino acid prodrug, IV and PO, rats. The series is classed as in vivo. The conditions noted are these: rat.
Source text: The goal of the study was to compare the pharmacokinetic (PK) profiles of the S-isomer (16i) and the R-isomer (16iii) at the phosphorus center, and to assess the effect of using the D-amino acid (16i with SP and RP isomers) on PK profile.
In order to isolate the effects of the administered agents on PL and PLP levels, the basal levels of both PL and PLP subtracted from the measured concentrations. Baseline subtraction was accomplished by subtracting pre-dose concentrations of either PL or PLP from the subsequent values in the time course.
Formulation—Prodrugs 16i (SP isomer), 16i (RP isomer) and 16i′ (16i with D-amino acid racemate) were formulated in phosphate buffered saline (PBS) as a homogenous solution on the day of dosing.
as §1, with “and group—19” for “and group—17”, “into 6” for “into 4”, “extra (n=3” for “extra (n=4”, “in 6” for “in 4”, “(Table 1).” for “(Table 6).”, “in Group 4, 5 and 6” for “in all groups”
On day 0, animals were weighted, and dosed by IV injection or by oral gavage as described in Table 10. Food tray were returned to Group 4, 5 and 6 two hours post dosing.
as §3, §2

Series [4] in a line: Pharmacokinetic study 2: P5P analogs 16 and 16v, IV and PO, rats. The series is classed as in vivo. The following applies: rat. How it is done:
Pharmacokinetic study 2 was carried out (Example 99: P5P analog 16i: Pharmacokinetic study 2) to assess the effect of the P5P analog 16v compared to P5P analog 16i.
In order to isolate the effects of the administered P5P analogs 16i and 16v on pyridoxine (PL) and P5P levels, the basal levels of both PL and P5P were subtracted from the measured concentrations. Baseline subtraction was accomplished by subtracting pre-dose concentrations of either PL or P5P from the subsequent values in the time course.
Formulation—Both P5P analog 16 and P5P analog 16v were formulated in 40% hydroxypropyl-β-cyclodextrin in water as homogenous solutions on the day of dosing.
as §1, with “and group—13” for “and group—17”, “extra (n=3” for “extra (n=4”, “(Table 8).” for “(Table 6). Animals were identified and bled for pre-dose blood.”, “in Group 3 and 4” for “in all groups”, “access to” for “access of”
On day 0, animals were identified, weighted, and dosed by intravenous (IV) injection or oral gavage (PO) as described in Table 8. Food tray were returned to Group 3 and 4, 2 hrs post dosing.
as §3, §2

Series [5] is described as follows: Pharmacokinetic study 3: P5P analog 16vi and Compound II.I., IV and PO, rats. The series is classed as in vivo. The conditions noted are these: rat. How it is done: […] (Example 100: P5P analog 16vi and compound II.I.: Pharmacokinetic study 3) to assess the effect of a P5P analog not encompassed by the compound of Formula I (Compound II.I.), amino acid modification (P5P analog 16vi) and compounds of formula 16iii, 16i and a racemic mixture of 16i.
In order to isolate the effects of the administered Compound II.I. and P5P analog 16vi on pyridoxine (PL) and P5P levels, the basal levels of both PL and P5P were subtracted from the measured concentrations. Baseline subtraction was accomplished by subtracting pre-dose concentrations of either PL or P5P from the subsequent values in the time course.
Formulation—Compound II.I. was formulated in 0.9% saline while P5P analog 16vi was formulated in 40% hydroxypropyl-β-cyclodextrin in water as a homogenous solution on the day of dosing.
as §1, with “and group—13” for “and group—17”, “extra (n=3” for “extra (n=4”, “(Table 9).” for “(Table 6). Animals were identified and bled for pre-dose blood.”, “in Group 3 and 4” for “in all groups”, “access to” for “access of”
On day 0, animals were identified, weighted, and dosed by intravenous (IV) injection or oral gavage (PO) as described in Table 9. Food tray were returned to Group 3 and 4, 2 hrs post dosing.
as §3
About 150 μL of blood was collected at indicated time points below using K2EDTA tubes. Blood was kept on ice until centrifugation at 4° C. at 6000 RCF for 10 min. […]

For the next series, the system named is plasma enzymes. The conditions noted are these: Sprague Dawley, rat.

As to `Cc1ncc(COP(=O)(N[C@@H](C)C(=O)OC(C)C)Oc2ccccc2)c(C=O)c1O` (mixture of isomers) [Compound 16, (2S)-Isopropyl 2-(((4-formyl-5-hydroxy-6-methylpyridin-3-yl)methoxy)(phenoxy)phosphorylamino)propanoate], the “adverse reactions / clinical signs” value in series [1] is on record as “no adverse reactions”. Moreover, in series [2] (IV 1 mg/kg), the “time after which the dosed compound is no longer left/detectable in the plasma” value came to 6 h. For the same molecule, in series [2] (given PO, FIGS. 7 a-d), the “ability to increase plasma PLP compared to PLP itself” value is “improved ability”. Besides, the “prodrug (P5P analog) time of peak” value in series [2] (oral 10 mg/kg) stood at 0.5 hours.

`Cc1ncc(COP(=O)(N[C@H](C)C(=O)OC(C)C)Oc2ccccc2)c(C=O)c1O` (mixture of isomers) [Compound 16iii, (2R)-Isopropyl 2-(((4-formyl-5-hydroxy-6-methylpyridin-3-yl)methoxy)(phenoxy)phosphorylamino)propanoate]: the “PLP exposure, racemic D-amino acid prodrug compared with L-amino acid prodrug” value in series [3] is recorded as “reduced PLP exposure”. For the same molecule, the “conversion to PLP in the plasma” value in series [3] (IV (and PO)) was “did not convert well to PLP”.

As to `CCC(CC)COC(=O)[C@H](C)NP(=O)(OCc1cnc(C)c(O)c1C=O)Oc1ccccc1` (stereo partly drawn) [Compound 16v, (2S)-2-Ethylbutyl 2-(((4-formyl-5-hydroxy-6-methylpyridin-3-yl)methoxy)(phenoxy)phosphorylamino)propanoate], in series [4] (dosed orally), the “oral availability of the prodrug (crosses gastrointestinal wall, detectable in circulation)” value is recorded as “orally bioavailable”. For the same molecule, the Tmax in series [4] (male, CD, plasma, IV 1 mg/kg, read-out: prodrug (P5P analog) time of Cmax) worked out at 6 min. Besides, the “plasma levels of P5P after oral dosing compared to P5P analog 16i” value in series [4] (oral dosing) is given as “slightly greater amounts”.

Consider `Cc1ncc(COP(=O)(N[C@@H](Cc2ccccc2)C(=O)OC(C)C)Oc2ccccc2)c(C=O)c1O` (stereo partly drawn) [Compound 16vi, (2S)-Isopropyl 2-(((4-formyl-5-hydroxy-6-methylpyridin-3-yl)methoxy)(phenoxy)phosphorylamino)-3-phenylpropanoate], for which the “oral bioavailability (detection in plasma after oral dosing)” value in series [5] (dosed orally) is “did not demonstrate significant oral bioavailability; also recorded: nor P5P were detected in the plasma at any significant levels”. Further, the Cmax in series [5] (male, CD, plasma, po, orally 10 mg/kg, read-out: dosed compound Cmax in plasma) is 1650 ng/mL. Besides, the dosed compound exposure in series [5] (orally 10 mg/kg) came out at 1592 ng/ml*hr.

Turning to `Cc1ncc(COP(=O)(N[C@@H](C)C(=O)OCc2ccccc2)Oc2ccccc2)c(/C=N/CCc2ccc(C#N)cc2)c1O` (stereo partly drawn) [Compound 16xxxviii, (2S)-Benzyl 2-(((4-((E)-(4-cyanophenethylimino)methyl)-5-hydroxy-6-methylpyridin-3-yl)methoxy)(phenoxy)phosphorylamino)propanoate], in the series on plasma enzymes, the P5P formed came out at 0.5 µM and the “relative P5P formed” value amounted to 14.7%.

With `Cc1ncc(COP(=O)(O)O)c(C=O)c1O` [Compound P5P, pyridoxal-5-phosphate], in series [2] (IV 1 mg/kg), the “overall exposure of P5P” value is on record as “approximately 2200 ng/ml*hr”, the “time after which the dosed compound is no longer left/detectable in the plasma” value stood at 4 h and the “total exposure of pyridoxal (above baseline values)” value was 770 ng/ml*hr. For the same molecule, the “plasma P5P Cmax” value in series [2] (IV 1 mg/kg, PBS) worked out at 3373 ng/mL. In series [2] (PO 10 mg/kg vs IV 1 mg/kg), the “oral bioavailability of P5P” value amounted to 0%. Besides, in series [2] (oral gavage 10 mg/kg), the “plasma pyridoxal Cmax” value is 3668 ng/mL. Moreover, the “P5P detected in the plasma over the 24-hour assessment period” value in series [2] (oral gavage 10 mg/kg, 10 mg/kg) was “no detectable P5P; also recorded: not detected”.

In general, Cmax refers to the highest concentration seen after dosing.
